Results: patent EP2878592B1, “SYNTHESIS OF AMIDE DERIVATIVES OF SOME NONSTEROIDAL ANTIINFLAMMATORY DRUGS AS POTENTIAL PRO-DRUGS” (Kücükgüzel, Ilkay, priority 2013, dated 2015)

Legend:
[1] = Partition coefficient (log P) study, chloroform / buffer, HPLC; type: physicochemical; conditions: 37°C, 24 hours
Description: 20 mg of amide compound is dissolved in 20 ml of chloroform. 10 mL of this mixture is drawn out (divided into two). This 10 ml of mixture is added to 20 ml with pH 1.2 buffer solution. Likewise the other 10 ml of mixture is added to 20 ml with pH 6.8 buffer solution. The tubes placed in a 37°C incubator are mixed for 24 hours.
After 24 hours the chloroform phase was removed and transferred to separate tubes. The chloroform is evaporated. After evaporation of chloroform, 10 mL of ACN is added and thoroughly mixed. 0.1 ml of the sample is taken out of the mixture with ACN and this sample is added to 10 ml with the mobile phase (S1, S2, S3) (Cn=1ug/ml)
The standard samples used in this study were prepared according to the method of preparation of standard samples given above.
• HPLC Column Type: ACE C18 reverse phase. • Flow Rate: 1 ml/min. • Wavelength: 210 nm

[2] = compared with the ibuprofen molecule; cited from earlier work
[3] = compared with ibuprofen, equimolar doses; cited from earlier work
[4] = pH 1.2 buffer solution / chloroform
[5] = pH 6.8 buffer solution / chloroform

Row | Log P (Experimental result) [1, 4] | Log P (Experimental result) [1, 5] | Structure (SMILES) | gastrointestinal and acute toxicities [2] | effect in relieving edema and in lowering fever [3]
1 | -0.05 | +0.05 | C[C@H](C(=O)NC(CO)(CO)CO)c1cccc(C(=O)c2ccccc2)c1 [Compound 1b, (+)-(2S)-2-(3-Benzoylphenyl)-N-[1,3-dihydroxy-2-(hydroxymethyl)propan-2-yl]propanamide] | – | –
2 | -0.12 | -0.41 | CC(C)Cc1ccc(C(C)C(=O)NC(CO)(CO)CO)cc1 (centres unmarked) [Compound 2b, N-[1,3-dihydroxy-2-(hydroxmethyl)propan-2-yl]-2-(4-isobutylphenyl)propanamide] | – | –
3 | -0.14 | -0.95 | CC(C(=O)NC(CO)(CO)CO)c1ccc(-c2ccccc2)c(F)c1 (centres unmarked) [Compound 3b, N-[1,3-Dihydroxy-2-(hydroxymethyl)propan-2-yl]-2-(2-fluorobiphenyl-4-yl)propanamide] | – | –
4 | – | – | COc1ccccc1OC(=O)C(C)c1ccc(CC(C)C)cc1 (centres unmarked) [guiacol ester of ibuprofen] | much lower | same effect
